Ten molecules from US4849421A, “Anti-anxiety benzothiepino(5,4-c]pyridazines” (Yoshitomi Pharmaceutical Industries, Ltd., priority 1987, dated 1989) can be followed below.

In data set [1] the test system is bicuculline-induced tonic convulsion. The data set can be described thus: Anti-bicuculline effect. The format is in vivo, male ddY-strain mice. Conditions: Mus musculus, po; mice, p.o. 1 hour before (+)bicuculline 0.6 mg/kg i.v.; tonic convulsion within 5 minutes. Here is the method:
Experiment 2: Anti-bicuculline effect:
The experiment of anti-bicuculline effect was performed according to the method described in Life Science, vol. 21, p. 1779 (1977).
Groups of 7-14 male ddY-strain mice weighing 20-28 g were used. (+)Bicuculline (0.6 mg/kg) was intraveneously administered 1 hour after the oral administration of test compound, and the ED50, 50% effective dose, was determined by observing the existence of tonic convulsion within 5 minutes.

A further data set has as its target benzodiazepine receptor. Briefly: Displacement ability for benzodiazepine receptor ([3H]diazepam binding). On the set-up: species or system Wistar rats (cerebral cortex, crude synaptosomal fraction). The note with it: tritiated diazepam 2 nM, 0° C., 20 minutes, pH 7.4, rat cerebral cortex. Here is the method:
Compound J: 8-chloro-2-(4-chlorophenyl)-5,6-dihydro-[1]benzothiepino[5,4-c]pyridazin-3(2H)-one 7-oxide Experiment 1: Displacement ability for benzodiazepine receptor:
Experiment on the specific binding for benzodiazepine receptor was performed according to the method described in Life Science, vol. 20, p. 2101 (1977).
A crude synaptosomal fraction was isolated from the cerebral cortex of 9 to 10 week-old male Wistar rats and suspended in 50 mM of Tris-hydrochloric acid buffer solution (pH 7.4) containing 120 mM of sodium chloride and 5 mM of potassium chloride.
To the synaptosomal suspension as prepared above were added various concentrations of test compounds and tritiated diazepam (final concentration: 2 nM), and the mixture was incubated at 0° C. for 20 minutes. Then the suspension was filtered through Whatman GF/B glass fiber filter. After the filter was washed with the foregoing buffer solution, the radioactivity left on the filter was measured by a liquid scintillation spectrometry.
Specific binding was determined by subtracting binding in the presence of 10^-6 M unlabelled diazepam from total binding.
The affinity of the test compounds of the present invention for benzodiazepine receptor is evaluated as an ability to displace tritiated diazepam from the binding site, and is represented as Ki value.

Data set [2] deals with number of shock in the punished period. Briefly: Anti-anxiety effect (anti-conflict test, Skinner-box). It counts as in vivo, male rats. The note with it: Rattus norvegicus; rats, oral; significant increment of number of shock in the punished period; read-out: Anti-anxiety effect MED. Here is the method: Experiment 3: Anti-anxiety effect:
The experiment was carried out by using groups of 8 male rats which were maintained at approximately 80% of their free food weights by reducing food and employing a Skinner-box equipped with lever on the side and a grid on the floor.
The rats were placed in the Skinner-box and trained to press a lever in order to obtain milk. According to this training, the rats could obtain 0.1 ml of milk once by pressing the lever twenty times (Fix-ratio 20 reinforcement schedule, FR20).
After the rats was trained to obtain milk for 10 minutes according to FR20 (this period was hereinafter referred to as unpunished period), loud noise was given to the rats for 5 minutes (this period was hereinafter referred to as punished period). In this punished period, the rats could obtain milk everytime when they pushed the lever once, and also received a foot shock (AC 100V, 0.4-0.8 mA) for 0.3 second through the grid.
According to the repeated training of the unpunished period and the punished period, the animals which continuously pushed the lever in the unpunished period and rarely pushed, it in the punished period, and had the number of shock below 10 were provided to the experiment.
After the rats were orally administered with a test compound in 0.5% methylcellulose, the unpunished period (10 minutes) and the punished period (5 minutes) were alternately performed four times to the rats. The number of push of the lever in the unpunished period in 40 minutes and the number of shock in the punished period in 20 minutes were measured, and minimum effective dose (MED, mg/kg) was determined as the dose which observable the significant increment of number of shock in the punished period with being compared to the control group.

Data set [3] relates to righting reflex. Briefly: Potentiation of narcotic effect (hexobarbital). The note with it: mice, oral, 1 hour before hexobarbital 40 mg/kg i.p.; loss of righting reflex. The format is in vivo, male mice. Here is the method: Experiment 5: Potentiation of narcotic effect:
Groups of 14 male mice, which were set in a room kept at 26° C., were administered orally with test compound and an hour later administered intraperitoneally with 40 mg/kg of hexobarbital. The righting reflex was tested at 15 and 30 minutes after hexobarbital treatment. The ED50 (mg/kg) was calculated by the probit method as the dose which caused loss of righting reflex for more than 3 seconds in half the mice.

The test system of data set [4] is righting reflex. Briefly: Potentiation of alcoholic effect (ethanol). Conditions: mice, oral, 1 hour before 30% ethanol 0.1 ml/10 g i.p.; loss of righting reflex. The format is in vivo, male mice. Here is the method: Experiment 6: Potentiation of alcoholic effect:
Groups of 14 male mice, which were set in a room kept at 26° C., were administered orally with test compound and an hour later administered intraperitoneally with 0.1 ml/10 g of 30% ethanol. The righting reflex was tested at 15 and 30 minutes after ethanol treatment. The ED50 (mg/kg) was calculated by the probit method as the dose which caused loss of righting reflex for more than 3 seconds in half the mice.

The subject of another data set is muscle-relaxant effect. Briefly: Muscle-relaxant effect (rotating rod). Conditions: Mus musculus; mice, oral, 1 hour; rotating rod 11 rpm, drop within 1 minute. It counts as in vivo, male mice. Here is the method: Experiment 4: Muscle-relaxant effect:
Groups of 10 male mice each were administered orally with test compounds and an hour later placed on the rotating rod (2.8 cm in diameter) turning at a speed of 11 rpm. The ED50 (mg/kg) was calculated by the probit method as the dose which caused to drop the half number of mice from the rod within 1 minute.

As to `O=c1cc2c(nn1-c1ccc(Cl)cc1)-c1ccccc1SCC2` [Compound A, 2-(4-chlorophenyl)-5,6-dihydro-[1]benzothiepino[5,4-c]pyridazin-3(2H)-one], in data set [1], the ED50 was found to be 5.5 mg/kg. In addition, at benzodiazepine receptor, the affinity corresponds to a Ki of 0.01 µM.

In data set [1], `O=c1cc2c(nn1-c1ccc(Cl)cc1)-c1cc(Cl)ccc1[S+]([O-])CC2` (centres unmarked) [Compound B, 10-chloro-2-(4-chlorophenyl)-5,6-dihydro-[1]benzothiepino[5,4-c]pyridazin-3(2H)-one 7-oxide] returned an ED50 of 3.2 mg/kg. Besides, the Ki on benzodiazepine receptor came to 0.011 µM.

As for `O=c1cc2c(nn1-c1ccc(Cl)cc1)-c1ccccc1[S+]([O-])CC2` (centres unmarked) [Compound C, 2-(4-chlorophenyl)-5,6-dihydro-[1]benzothiepino[5,4-c]pyridazin-3(2H)-one 7-oxide], in data set [2], the minimal effective dose is 2.5 mg/kg. The ED50 in data set [1] was found to be 1.2 mg/kg; with muscle-relaxant effect, 103 mg/kg. On benzodiazepine receptor, this molecule came in with a Ki of 0.037 µM. The “Potentiation of narcotic effect ED50” value in the data set with righting reflex [3] is recorded as 113 mg/kg. Also, the “Potentiation of alcoholic effect ED50” value with righting reflex [4] worked out at 44 mg/kg.

`O=C1CC2CC[S+]([O-])c3ccccc3C2=NN1c1ccc(Cl)cc1` (centres unmarked) [Compound D, 2-(4-chlorophenyl)-4,4a,5,6-tetrahydro-[1]benzothiepino[5,4-c]pyridazin-3(2H)-one 7-oxide] returned an ED50 in data set [1] of 4.5 mg/kg. For the same molecule, the Ki at benzodiazepine receptor came to 0.045 µM.

`O=c1cc2c(nn1-c1ccc(Cl)cc1)-c1cc(F)ccc1SCC2` [Compound E, 2-(4-chlorophenyl)-10-fluoro-5,6-dihydro[1]benzothiepino[5,4-c]pyridazin-3(2H)-one] had an ED50 in data set [1] of 2.2 mg/kg. Besides, at benzodiazepine receptor, the Ki was 0.014 µM.

Regarding `O=c1cc2c(nn1-c1ccc(Cl)cc1)-c1cc(F)ccc1[S+]([O-])CC2` (centres unmarked) [Compound F, 2-(4-chlorophenyl)-10-fluoro-5,6-dihydro-[1]benzothiepino[5,4-c]pyridazin-3(2H)-one 7-oxide], the minimal effective dose in data set [2] was below 5 mg/kg. Further, the ED50 in data set [1] stood at 0.72 mg/kg; with muscle-relaxant effect, 107 mg/kg. Further, at benzodiazepine receptor, the affinity, expressed as Ki, was 0.036 µM. In the data set with righting reflex [3], the “Potentiation of narcotic effect ED50” value was 110 mg/kg. For the same molecule, the “Potentiation of alcoholic effect ED50” value in the data set on righting reflex [4] was determined as 117 mg/kg.

Molecule `O=c1cc2c(nn1-c1ccc(Br)cc1)-c1ccccc1[S+]([O-])CC2` (centres unmarked) [Compound G, 2-(4-bromophenyl)-5,6-dihydro-[1]benzothiepino[5,4-c]pyridazin-3(2H)-one 7-oxide] showed an ED50 in data set [1] of 5.9 mg/kg. The same molecule gave a Ki on benzodiazepine receptor of 0.034 µM.

For `O=C1CC2CC[S+]([O-])c3ccccc3C2=NN1c1ccc(Br)cc1` (centres unmarked) [Compound H, 2-(4-bromophenyl)-4,4a,5,6-tetrahydro-[1]benzothiepino[5,4-c]pyridazin-3(2H)-one 7-oxide], the ED50 in data set [1] was determined as 4.5 mg/kg. Further, affinity on benzodiazepine receptor was put at a Ki of 0.044 µM.

`O=c1cc2c(nn1-c1ccc(F)cc1)-c1cc(F)ccc1SCC2` [Compound I, 10-fluoro-2-(4-fluorophenyl)-5,6-dihydro-[1]benzothiepino[5,4-c]pyridazin-3(2H)-one] registered an ED50 in data set [1] of 6 mg/kg. On benzodiazepine receptor, this molecule showed a Ki of 0.043 µM.

Consider `O=c1cc2c(nn1-c1ccc(Cl)cc1)-c1cccc(Cl)c1[S+]([O-])CC2` (centres unmarked) [Compound J, 8-chloro-2-(4-chlorophenyl)-5,6-dihydro-[1]benzothiepino[5,4-c]pyridazin-3(2H)-one 7-oxide], for which, in data set [2], the minimal effective dose was below 5 mg/kg. In addition, the ED50 in data set [1] was 0.67 mg/kg; with muscle-relaxant effect, above 500 mg/kg. For the same molecule, affinity on benzodiazepine receptor was put at a Ki of 0.011 µM. Besides, in the data set on righting reflex [3], the “Potentiation of narcotic effect ED50” value is given as above 200 mg/kg. Also, the “Potentiation of alcoholic effect ED50” value in the data set on righting reflex [4] is reported as above 500 mg/kg.

What is called ED50 is the midpoint of the dose-response relation. High values mean a need for a large dose, low ones an effect at a small dose. One may read the Ki as a dissociation constant, usually derived from enzyme kinetics or from competition with a known ligand. Read a low Ki as higher affinity.
